Experimental data taken from patent US11110080B2, “Small molecule inhibitors of bacterial efflux pumps and methods of using same” (The Regents of the University of Colorado, a body Corporate, priority 2017, dated 2021).
“Also recorded” adds a separate entry of the source. Read-outs that look alike come from different tables or passages of the source. Peptide text beside a SMILES is read from it. * marks the point of attachment. βNA = c1ccc2cc(N*)ccc2c1

Assays:
[1] = system: S.Tm efflux pumps; assay: Hoechst 33342 accumulation assay; assay type: cell-based, Salmonella enterica serovar Typhimurium; conditions: wild-type S.Tm, 60 minutes
Experimental: Efflux pumps (EPs) represent a key pathogen virulence strategy to protect against host antimicrobials as well as therapeutic antibiotics. […] To uncover putative EPMs within our collection of hits, 58 repurchased compounds were screened in a Hoechst accumulation assay. Bacteria were incubated with Hoechst 33342, a dye which fluoresces when bound to DNA.
Hoechst accumulation assays were performed essentially as described in the literature. Briefly, overnight Salmonella cultures were washed 3 times in PBS and diluted to an OD of 0.1 in PBS with 2.5 μM Hoechst 33342 in the presence of the indicated concentrations of compounds. Fluorescence was monitored on a Biotek Synergy 2 with a 360/40 nm excitation filter and 460/40 nm emission filter. The maximum Hoechst fluorescence over 60 minutes of incubation was normalized to the signal from the equivalent number of heat-killed bacteria, after subtraction of autofluroescent signal determined from compound incubated in the absence of bacteria. Curve fitting to determine EC50s was performed using GraphPad Prism.

[2] = system: S.Tm efflux pumps; assay: Nile Red efflux assay; assay type: cell-based, Salmonella enterica serovar Typhimurium
Description: Because Hoechst and other dyes commonly used to assess efflux bind cellular components, direct measurement of efflux is not possible using these methods; instead, the Hoechst assay measures dye accumulation, the net result of entry and efflux. Further, the slow off-rate of Hoechst entails that efflux pumps have no effect on dye already bound to DNA. As a result, compounds which increase Hoechst accumulation may actually enhance dye entry by altering porins or disrupting the membrane. To more specifically measure efflux pump activity, a second technique was employed using the dye Nile Red, a lipophilic membrane-partitioning dye which fluoresces in nonpolar environments. Because Nile Red is not known to bind cellular components, to directly observe efflux cells were preloaded with the dye in the absence of glucose to reduce efflux pump activity (FIG. 7A). Upon addition of glucose, bacteria rapidly effluxed Nile Red and fluorescence returned to baseline levels (FIG. 7B, top panel). […] The initial measured fluorescence was lower for DMSO-treated cells (upper dotted line) than for PAβN-treated cells due to glucose-independent efflux during sample preparation (FIG. 8A). Next, it was determined whether efflux pump activity is restored after removal of PAβN. Bacteria were incubated with compound for 15 minutes, pelleted and resuspended in buffer lacking compound, and then stimulated with glucose (FIGS. 7C, 7E).
Nile Red assays were adapted from an established protocol. Briefly, overnight Salmonella cultures were grown in Mueller-Hinton cation-adjusted broth (Sigma), washed, and resuspended at an OD600 of 2.0. Cells were incubated in 10 μM Nile Red for 3 hours at 37° C. with aeration, then moved to room temperature for 1 hour. After pelleting at 2000× g, dye-loaded cells were aliquoted and combined with compound at the indicated concentrations. Two hundred microliters was loaded into 96-well black walled plates (Greiner) and read using a Varioskan Flash Multimode Reader with 540 nm excitation and 625 nm emission filters. We observed that during loading into plates (˜20 minutes), bacteria were able to efflux Nile Red even in the absence of glucose (FIG. 8A). To activate efflux, glucose was added to a final concentration of 2 mM. In some experiments, bacteria were treated with drug for 15 minutes, pelleted at 16,000×g, resuspended in fresh buffer, and stimulated with 2 mM glucose. All wash and incubation steps were performed in PBS with 1 mM MgCl2; incubations were performed in glass tubes to reduce adhesion of Nile Red.

[3] = Log D, solubility and predicted bioavailability; assay type: physicochemical; conditions: high concentrations
[4] = system: S.Tm wild-type SL1344, MAR1 and S10801; assay: microbe, parasite or virus in culture; assay type: cell-based, Salmonella enterica serovar Typhimurium; conditions: for MIC: Salmonella enterica
Experimental: Increased expression or function of efflux pumps often contributes to clinical multidrug resistance. Therefore, whether the EPMs re-sensitize two multidrug resistant strains of S.Tm to tetracycline was tested. Tetracycline is an antibiotic exported by AcrAB. The MAR1 strain is derived from wild-type SL1344 was selected by exposure to tetracycline, and has increased expression of the AcrAB efflux pump. S10801 is an MDR strain isolated from the mesenteric lymph node of a septic calf and is resistant to tetracycline, ampicillin, chloramphenicol, nalidixic acid, and triple sulfa. The basis of multi-drug resistance in this strain is unknown.
Overnight Salmonella cultures were washed 3 times in PBS and diluted to an OD of 0.01 in Mueller Hinton Broth in 96-well flat bottom plates. Compound was added using a pin tool (CyBio) or manually, yielding a final concentration of no more than 1% DMSO. Plates were grown at 37° C. shaking and OD600 was monitored using a BioTek Eon incubator shaker microplate absorbance reader. For experiments in defined media, bacteria were grown in M9 minimal media supplemented with 100 mM Tris pH 7.4, 0.35% glycerol, 0.002% histidine, 10 mM MgCl2, and 0.1% casamino acids. Where indicated, media was supplemented with 5 μg/ml polymyxin B or 0.2 mM H2O2. For experiments with LL-37, bacteria were grown in M9 minimal media supplemented with 0.4% dextrose, 0.004% histidine, 1 mM MgSO4, and 5 μg/ml LL-37. For checkerboard assays, MIC was defined as the concentration at which no growth was visually observed.

[5] = system: S.Tm; assay: Swimming assay in soft agar (proton motive force); assay type: cell-based, Salmonella enterica serovar Typhimurium; conditions: 400× the MIC (4 μM)
Experimental: One way to inhibit efflux pumps is to disrupt the proton motive force, which is required for transport by some EPs. […] Bacteria were injected into the center of 0.25% agar plates, and 10 μl of compound was added to paper disks on the periphery. […] Also ampicillin and rifampicin were tested. We plotted the halo radius versus the concentration as the fold above the MIC (FIG. 9G). […] Next, it was determined whether PAβN inhibited swimming; PAβN is thought to disrupt membranes over long incubations. […] Finally, the EPMs at […] were tested (FIGS. 9D-F).
Saturated overnight cultures were diluted to an OD600 of 0.01 in LB and 1 μL was injected into the center of low agar (0.25%) LB plates. Ten microliters of the indicated compounds were added to sterilized Whatman paper disks (diameter 0.7 cm) placed equidistant from the plate center.

[6] = system: Salmonella enterica serovar Typhimurium (S.Tm) within RAW 264.7 murine macrophages; assay: SAFIRE: fluorescence microscopy assay of S.Tm load within macrophages; assay type: cell-based; conditions: for hit status in SAFIRE screen: Maybridge HitFinder v11 library screened at 25 μM; for percentage of infected macrophages (validated hit): among the 309 hits
Experimental: A high-content, high-throughput fluorescence microscopy-based screening platform to assay S.Tm load within macrophages was developed (FIG. 1A). RAW 264.7 murine macrophages, a widely used cell line for bacterial infection studies, were infected with bacteria in a standard gentamicin protection assay. The Salmonella expressing GFP driven by the sifB promoter was incubated with the compound beginning at 2 hours post-infection. At 18 hours post-infection, cells were stained with MitoTracker Red CMXRos as a marker of macrophage vitality and processed for fluorescence microscopy. Stained with DAPI. A MATLAB®-based algorithm was developed to quantify infection (FIG. 1B) and compared to statistics to describe infection. Percentage of infected cells was determined by counting the proportion of macrophages within an image with at least 2 GFP+ pixels. Infection area was calculated by normalizing the number of GFP+ pixels within a cell to the cell's total area, then averaging across all cells in an image. To evaluate the approach, 2 μg/ml rifampicin in 96-well and 384-well plates was tested in three independent replicates. The Z′-factor was employed as a measure of assay reproducibility. Numbers close to 1 indicated high reproducibility. For percentage of infected macrophages, the Z′-factor was 0.59 and 0.48 in 96-well and 384-well plates, respectively, compared with 0.66 and 0.38 for infection area. The optimal Z′-factor threshold for high-throughput screening was 0.5; however, values above 0 were considered marginal but feasible. Therefore, the percentage of infected macrophages statistic was used.
The 14,400 compound library Maybridge HitFinder™ v11 was screened, which has been extensively screened against mammalian and microbial targets. The library was screened in duplicate at 25 μM in 384-well plates (FIG. 1C). Data were normalized using the B-score method to remove positional variation. The significance of B-scores was calculated using a modified t-test assuming an inverse gamma distribution of variances. Using a dual threshold of B-score greater than 1 and standard deviation from the mean and p-value less than 0.05, 908 compounds (6.3%) were identified that decreased or increased the percentage of infected macrophages. […] Compounds that altered infection by at least 25% in 96-well plates were considered validated hits.
For high-throughput screening and validation, 7×10^3 macrophages in 40 μL or 3×10^4 macrophages in 100 μL were seeded in 384- or 96-well black-walled, glass-bottomed plates (Brooks Automation). […] Forty-five minutes after bacterial addition, 20 or 50 μL gentamicin was added to a final concentration of 40 μg/mL. […] At 2 hours post-infection, 200 or 500 nL compound was added using a pin tool (CyBio) to yield a final concentration of 25 μM. Each assay plate included rifampicin and DMSO controls. In some experiments, media was removed and replaced with fresh medium containing 40 μg/mL gentamicin and the indicated concentrations of drugs. At 17.5 hours post-infection, PBS containing MitoTracker Red CMXRos (Life Technologies) was added to yield a final concentration of 300 nM (384-well) or 100 nM (96-well). Thirty minutes later, 16% paraformaldehyde was added to a final concentration of 1-2% and incubated at room temperature for 15 minutes. Wells were washed twice with PBS and stained for 20 minutes with 1 μM DAPI; wells were washed twice and stored in 90% glycerol in PBS until imaging.
High magnification images were acquired on an Olympus IX81 inverted widefield microscope. For screening imaging, three-color images were acquired at 10× or 20× on a Cellomics ArrayScan VTI (Thermo) and exported to DIB files. At least two images were taken per well for all experiments. […]

Br.NC(N)=NCCCC(NC(=O)C(N)Cc1ccccc1)C(=O)Nc1ccc2ccccc2c1 (stereo not drawn) [PAβN, Phe-Arg β-naphthylamide, reference compound] (H-Phe-Arg-βNA; configuration not given here)
Hoechst accumulation / fluorescence [1]: Hoechst accumulation increased | Hoechst accumulation / fluorescence ([1]; listed as PaβN): higher levels of fluorescence | glucose-activated efflux of Nile Red ([2]; 500 μM): inhibited glucose-activated efflux | Nile Red efflux, dose response ([2]; 7 minutes post-glucose addition): dose dependent inhibition of Nile Red efflux; also recorded: reduced the rate and extent of Nile Red export | Nile Red efflux after washout of compound ([2]; 15 minutes with compound, washed, then glucose): partially restored Nile Red export | Nile Red fluorescence in the absence of glucose (basal loss) ([2]; no glucose): inhibit basal loss of Nile Red | solubility in cell culture media [3]: insolubility of high concentrations in cell culture media | decrease of the tetracycline MIC ([4]; 250 μM (⅛ MIC), both strains MAR1 and S10801): 4 fold

O=C(O)c1cn(C2CC2)c2cc(N3CCNCC3)c(F)cc2c1=O [ciprofloxacin, reference compound]
halo in swimming assay [5]: formed a halo similar in size to that of CCCP

CN(C)CCCN1c2ccccc2CCc2ccc(Cl)cc21 [Clomipramine]
hit status in SAFIRE screen [6]: Clomipramine^1

O=C(N[C@H](CO)[C@H](O)c1ccc([N+](=O)[O-])cc1)C(Cl)Cl [Chloramphenicol]
percentage of infected macrophages (validated hit) ([6]; 25 μM): decreased the percentage of infected macrophages | hit status in SAFIRE screen [6]: Chloramphenicol^1

O=C(NC1CCN(CCc2c[nH]c3ccccc23)CC1)c1ccccc1 [Indoramin]
hit status in SAFIRE screen [6]: Indoramin^1

CC1(C)S[C@@H]2[C@H](N)C(=O)N2[C@H]1C(=O)O [6-aminopenicillinate]
activity in the screen ([6]; 25 μM): modest activity | average B-score from the screen ([6]; 25 μM, duplicate, threshold −2.17): −2.29 | hit status in SAFIRE screen [6]: 6-aminopenicillinate^2

Nc1c2ccccc2nc2ccccc12 [9-aminoacridine]
percentage of infected macrophages (validated hit) ([6]; 25 μM): decreased the percentage of infected macrophages | hit status in SAFIRE screen [6]: 9-aminoacridine^1

CN(C)[C@@H]1C(O)=C(C(N)=O)C(=O)[C@@]2(O)C(O)=C3C(=O)c4c(O)cccc4[C@@](C)(O)[C@H]3C[C@@H]12 [tetracycline]
increase in tetracycline MIC over wild type ([4]; MAR1): 2 fold | increase in tetracycline MIC over wild type ([4]; S10801): 64 fold | MIC ([4]; read-out: tetracycline MIC, MAR1): 4 µg/mL | MIC ([4]; read-out: tetracycline MIC, S10801): 128 µg/mL | MIC ([4]; read-out: tetracycline MIC, wild-type S.Tm): 2 µg/mL
